Measurements published in patent publication US5422341A, “Motilin-like polypeptides with gastrointestinal motor stimulating activity” (Ohmeda Pharmaceutical Products Division Inc., priority 1993, dated 1995).

Legend:
motilin receptor = molecular target: T1, motilin receptor (Oryctolagus cuniculus, UniProt G1T803); test: Determination of motilin receptor binding affinity (displacement of [125I-Tyr7, Nle13]motilin(porcine)); parameters: species or system rabbit
T1 construct: from tissue; host or cells: rabbit antral smooth muscle membranes
Experimental: The motilin receptor binding affinity of the peptides of this invention was determined by using the general procedure of Bormans, Peelers and Vantrappen, Regul. […] Fitting was performed using the iterative least-squares procedure of the SAS-software package (SAS Institute, Inc., Cary, N.C., USA).

[1] = in vivo; cited from earlier work

T1 sequence (G1T803 1-400): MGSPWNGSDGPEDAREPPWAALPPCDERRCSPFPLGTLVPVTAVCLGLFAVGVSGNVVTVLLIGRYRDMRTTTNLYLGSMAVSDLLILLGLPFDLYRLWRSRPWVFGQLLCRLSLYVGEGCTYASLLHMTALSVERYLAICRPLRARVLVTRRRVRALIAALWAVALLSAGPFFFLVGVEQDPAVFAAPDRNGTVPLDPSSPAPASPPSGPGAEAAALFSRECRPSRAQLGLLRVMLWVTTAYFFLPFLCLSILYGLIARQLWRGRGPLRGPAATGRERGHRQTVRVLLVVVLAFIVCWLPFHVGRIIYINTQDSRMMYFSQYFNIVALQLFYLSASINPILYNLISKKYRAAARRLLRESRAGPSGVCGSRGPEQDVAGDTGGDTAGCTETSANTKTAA

## CC[C@H](C)[C@H](NC(=O)[C@@H]1CCCN1C(=O)[C@@H](NC(=O)[C@@H](N)Cc1ccccc1)C(C)C)C(=O)N[C@@H](Cc1ccccc1)C(=O)N[C@H](C(=O)N[C@@H](Cc1ccc(O)cc1)C(=O)NCC(=O)N[C@@H](CCC(=O)O)C(=O)N[C@@H](CC(C)C)C(=O)N[C@@H](CCC(N)=O)C(=O)N[C@@H](CCCNC(=N)N)C(=O)N[C@@H](CCSC)C(=O)N[C@@H](CCC(N)=O)C(=O)N[C@@H](CCC(=O)O)C(=O)N[C@@H](CCCCN)C(=O)N[C@@H](CCC(=O)O)C(=O)N[C@@H](CCCNC(=N)N)C(=O)N[C@@H](CC(N)=O)C(=O)N[C@@H](CCCCN)C(=O)NCC(=O)N[C@@H](CCC(N)=O)C(=O)O)[C@@H](C)O [motilin]
Motilin receptor
  Kd: 0.759 nM
[1]
  half-life (t1/2): 4.5 min
